Measurements published in patent US12509460B2 (Skyhawk Therapeutics, Inc., priority 2019, dated 2025).
Like-named read-outs stand apart in the source and are kept apart here.

Tests used:
[1] = system: MDR1-MDCK cell monolayers; experiment: Blood-brain-barrier (BBB) penetration potential via MDCK-MDR1 permeability assay
MDR1 (P-gp) = experiment: as above; details: dog; for Papp A→B at 120 min, 5 μM: MDCK-MDR1, pH 7.4, MDCK-MDR1: Papp A-B; for Papp B→A at 120 min, 5 μM: MDCK-MDR1, pH 7.4, MDCK-MDR1: Papp B-A
MDR1 = experiment: as above; details: dog, MDCK-MDR1, pH 7.4, MDCK-MDR1: Efflux
[2] = system: SMN FL and SMN Δ7 in spinal muscular atrophy (SMA) patient fibroblasts (GM03813, Coriell); experiment: Quantitative splicing assay (SMN), qPCR; assay type: cell-based, human; details: Homo sapiens, Fibroblast, 24 h, read-out: SMN2 Splicing FL EC50
Experimental: Spinal muscular atrophy (SMA) patient fibroblasts (GM03813, Coriell) are plated in 96-well plates at 50,000 cells/well. […] Treated cells are lysed and cDNA synthesized using the Fast Advanced Cells-to-Ct kit (Thermofisher A35378) according to the manufacturer's instructions. 2 μL of each cDNA are used in qPCR reactions. […] Reactions are run in a Quant Studio 6 qPCR instrument with default settings.

[3] = system: mHTT protein in GM04724 (CAG 70/20) Huntington's disease patient lymphoblast cells; experiment: mHTT protein assay, 2B7-MW1 assay via Mesoscale Discovery (MSD); assay type: cell-based, human
Outline: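 Signal from the 2B7-MW1 antibody pair on MSD, rising with polyQ length and smaller HTT fragments, measured mHTT after 48 h compound exposure (0.6 nM–10 μM) in GM04724 cells. A parallel replicate plate gave CellTiter Glo viability.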

[4] = Quantitative splicing assay (HTT), qPCR; assay type: cell-based, human; details: Homo sapiens, GM04724, 24 h, GM04724 lymphoblasts, read-out: HTT Splicing: E49-50 EC50
Outline: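 TaqMan qPCR on cell-lysate cDNA quantifies cryptic-exon inclusion from HTT intron 49. Lymphoblasts plated at 50,000 cells/well had received compound for 24 h, 0.15 nM-2.5 uM range, 0.1% DMSO.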

[5] = system: SMN protein in spinal muscular atrophy (SMA) patient fibroblasts (GM03813, Coriell); experiment: SMN protein assay, Mesoscale Discovery (MSD); assay type: cell-based, human; details: read-out: SMN2 protein EC50
Outline: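 Absolute SMN levels were quantified by MSD against an SMN protein standard curve (1 μg/ml to 19.5 pg/ml) run on each plate. Samples were lysates of GM03813 patient fibroblasts (7000 cells/well) treated 48 hours with compound doses from 2.5 μM down to 0.6 nM.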

[6] = SMA patient fibroblasts GM03813, 24 h, qPCR
[7] = GM04724 Huntington's disease patient lymphoblasts
[8] = SMA patient fibroblasts GM03813, 48 hours, MSD
[9] = SMA patient fibroblasts (GM03813)
[10] = GM04724 (CAG 70/20) Huntington's disease patient lymphoblasts
[11] = SMA patient fibroblasts (GM03813), 48 hours

With CN(c1ccc(-c2cc3occc(=O)c3cc2O)nn1)[C@H]1C[C@@H]2CC[C@@H](N2)[C@H]1F [Compound 43B, 7-(6-(((1R,2R,3S,5S)-2-fluoro-8-azabicyclo[3.2.1]octan-3-yl)(methyl)amino)pyridazin-3-yl)-6-hydroxy-4H-chromen-4-one] the “MDCK-MDR1: % Recov A-B” value ([1]; A-B direction) was 66%, the “MDCK-MDR1: % Recov B-A” value ([1]; B-A direction) was 48% and the Papp A→B at 120 min, 5 μM (MDR1 (P-gp); A-B direction) was 2.32 ×10⁻⁶ cm/s. The Papp B→A at 120 min, 5 μM (MDR1 (P-gp); B-A direction) was 28.3 ×10⁻⁶ cm/s, the efflux ratio at 120 min, 5 μM (MDR1; efflux ratio) was 12 and the EC50 [2, 6] was 0.01 to 15 nM. It also gave an EC50 [3, 7] of 0.01 to 15 nM, an EC50 ([4]; qPCR) of 0.01 to 15 nM and an EC50 [5, 8] of 0.01 to 15 nM.
In the case of CN(c1ccc(-c2ccc(-n3ccnn3)cc2O)nn1)[C@H]1C[C@@H]2CCC[C@@H](N2)[C@H]1F [Compound 62B, 2-(6-(((1R,2R,3S,5S)-2-fluoro-9-azabicyclo[3.3.1]nonan-3-yl)(methyl)amino)pyridazin-3-yl)-5-(1H-1,2,3-triazol-1-yl)phenol], the “MDCK-MDR1: % Recov A-B” value ([1]; A-B direction) is reported as 82%, the “MDCK-MDR1: % Recov B-A” value ([1]; B-A direction) is reported as 80% and the Papp A→B at 120 min, 5 μM (MDR1 (P-gp); A-B direction) is reported as 3.18 ×10⁻⁶ cm/s. For the same compound, the Papp B→A at 120 min, 5 μM (MDR1 (P-gp); B-A direction) was 59.8 ×10⁻⁶ cm/s, the efflux ratio at 120 min, 5 μM (MDR1; efflux ratio) was 19 and the EC50 [2, 6] was 0.01 to 15 nM. For the same compound, the EC50 [3, 7] was 0.01 to 15 nM, the EC50 ([4]; qPCR) was 0.01 to 15 nM and the EC50 [5, 8] was 0.01 to 15 nM.
In the case of Cc1nc2cc(O)c(-c3ccc(N(C)[C@H]4C[C@@H]5CC[C@@H](N5)[C@H]4F)nn3)cc2o1 [Compound 117B, 6-(6-(((1R,2R,3S,5S)-2-fluoro-8-azabicyclo[3.2.1]octan-3-yl)(methyl)amino)pyridazin-3-yl)-2-methylbenzo[d]oxazol-5-ol], the “MDCK-MDR1: % Recov A-B” value ([1]; A-B) is reported as 90%, the “MDCK-MDR1: % Recov B-A” value ([1]; B-A) is reported as 86% and the Papp A→B at 120 min, 5 μM (MDR1 (P-gp); A-B) is reported as 4.32 ×10⁻⁶ cm/s. It also gave a Papp B→A at 120 min, 5 μM (MDR1 (P-gp); B-A) of 45 ×10⁻⁶ cm/s, an efflux ratio at 120 min, 5 μM (MDR1) of 10 and an EC50 [2, 9] of 16 to 50 nM. For the same compound, the EC50 [3, 10] was 0.01 to 15 nM, the EC50 [4] was 16 to 50 nM and the EC50 [5, 11] was 0.01 to 15 nM.
In the case of CN(c1ccc(-c2cc3c(=O)n(C)ccc3cc2O)nn1)[C@H]1C[C@@H]2CC[C@@H](N2)[C@H]1F [Compound 83B, 7-(6-(((1R,2R,3S,5S)-2-fluoro-8-azabicyclo[3.2.1]octan-3-yl)(methyl)amino)pyridazin-3-yl)-6-hydroxy-2-methylisoquinolin-1(2H)-one], the “MDCK-MDR1: % Recov A-B” value ([1]; A-B direction) is reported as 77%, the “MDCK-MDR1: % Recov B-A” value ([1]; B-A direction) is reported as 72% and the Papp A→B at 120 min, 5 μM (MDR1 (P-gp); A-B direction) is reported as 1.43 ×10⁻⁶ cm/s. It also gave a Papp B→A at 120 min, 5 μM (MDR1 (P-gp); B-A direction) of 44.4 ×10⁻⁶ cm/s, an efflux ratio at 120 min, 5 μM (MDR1; efflux ratio) of 31 and an EC50 [2, 6] of 0.01 to 15 nM. It also gave an EC50 [3, 7] of 0.01 to 15 nM, an EC50 ([4]; qPCR) of 0.01 to 15 nM and an EC50 [5, 8] of 0.01 to 15 nM.
For CCc1cn(-c2ccc(-c3ccc(N(C)[C@@H]4C[C@H]5CC(F)(F)[C@@H](C4)N5)nn3)c(O)c2)cn1 [Compound 18A, 2-(6-(((1S,3R,5R)-6,6-difluoro-8-azabicyclo[3.2.1]octan-3-yl)(methyl)amino)pyridazin-3-yl)-5-(4-ethyl-1H-imidazol-1-yl)phenol], the “MDCK-MDR1: % Recov A-B” value ([1]; A-B direction) was 56%, the “MDCK-MDR1: % Recov B-A” value ([1]; B-A direction) was 71% and the Papp A→B at 120 min, 5 μM (MDR1 (P-gp); A-B direction) was 7 ×10⁻⁶ cm/s. It also gave a Papp B→A at 120 min, 5 μM (MDR1 (P-gp); B-A direction) of 40.7 ×10⁻⁶ cm/s, an efflux ratio at 120 min, 5 μM (MDR1; efflux ratio) of 6 and an EC50 [2, 6] of 16 to 50 nM. The EC50 [3, 7] was 51 to 100 nM, the EC50 ([4]; qPCR) was 16 to 50 nM and the EC50 [5, 8] was 0.01 to 15 nM.
With CCN(c1ccc(-c2ccc(-c3cn[nH]c3)cc2O)nn1)[C@H]1C[C@@H]2CC[C@@H](N2)[C@H]1F [Compound 12B, 2-(6-(ethyl((1R,2R,3S,5S)-2-fluoro-8-azabicyclo[3.2.1]octan-3-yl)amino)pyridazin-3-yl)-5-(1H-pyrazol-4-yl)phenol] the “MDCK-MDR1: % Recov A-B” value ([1]; A-B direction) was 57%, the “MDCK-MDR1: % Recov B-A” value ([1]; B-A direction) was 52% and the Papp A→B at 120 min, 5 μM (MDR1 (P-gp); A-B direction) was 0.7 ×10⁻⁶ cm/s. For the same compound, the Papp B→A at 120 min, 5 μM (MDR1 (P-gp); B-A direction) was 30.1 ×10⁻⁶ cm/s, the efflux ratio at 120 min, 5 μM (MDR1; efflux ratio) was 43 and the EC50 [2, 6] was 0.01 to 15 nM. The EC50 [3, 7] was 0.01 to 15 nM, the EC50 ([4]; qPCR) was 0.01 to 15 nM and the EC50 [5, 8] was 0.01 to 15 nM.
With Cc1nc2cc(O)c(-c3ccc(N(C)[C@H]4C[C@@H]5CC[C@@H](N5)[C@H]4F)nn3)cc2s1 [Compound 116B, 6-(6-(((1R,2R,3S,5S)-2-fluoro-8-azabicyclo[3.2.1]octan-3-yl)(methyl)amino)pyridazin-3-yl)-2-methylbenzo[d]thiazol-5-ol] the “MDCK-MDR1: % Recov A-B” value ([1]; A-B) was 77%, the “MDCK-MDR1: % Recov B-A” value ([1]; B-A) was 80% and the Papp A→B at 120 min, 5 μM (MDR1 (P-gp); A-B) was 6.29 ×10⁻⁶ cm/s. The Papp B→A at 120 min, 5 μM (MDR1 (P-gp); B-A) was 43.2 ×10⁻⁶ cm/s, the efflux ratio at 120 min, 5 μM (MDR1) was 7 and the EC50 [2, 9] was 0.01 to 15 nM. The EC50 [3, 10] was 0.01 to 15 nM, the EC50 [4] was 0.01 to 15 nM and the EC50 [5, 11] was 0.01 to 15 nM.
